Patent publication US10329315B2, “Glycosphingolipids and methods of use thereof” (The Brigham and Women's Hospital, Inc., priority 2012, dated 2019)

Test system: iNKT hybridoma 24.7
Test: iNKT cell activation in co-culture of BMDCs and iNKT hybridoma 24.7, IL-2 by ELISA
Type: cell-based
Conditions: incubated with BMDCs 4 hours, then iNKT hybridoma 24.7 for 24 hours
Method: Experiments were performed to determine whether fractions of B. fragilis sphingolipids are immunostimulatory (agonists) to iNKT cells. Lipid fractions were extracted from BF membranes, incubated with bone marrow dendritic cells (BMDCs) for 4 hours, and then co-incubated with iNKT hybridoma 24.7 for 24 hours. IL-2 was measured by ELISA as a readout of iNKT cell activation. KRN7000 refers to the known immunostimulatory alpha-GC. Cer-SL refers to the ceramide sphingolipid fraction. PE-SL refers to the phosphoethanolamine sphingolipid fraction. GL-SL refers to the glycosphingolipid fraction. C17 minor refers to alpha-GC having a C17 ceramide chain length. […] As expected, KRN7000 was stimulatory.
Further studies confirmed that alpha-GC-Bf717 was detectable only in fecal samples from BFWT mice and not in samples from BFΔSPT mice. The estimated yield of alpha-GC-Bf717 was about 1 ng per gram of fecal pellet. To confirm that alpha-GC-Bf717 had antagonistic activity, co-cultures similar to those described above for bulk GL-SL fractions were performed.

CCCCCCCCCCCCCCCCCCCCCCCCCC(=O)N[C@@H](CO[C@H]1O[C@H](CO)[C@H](O)[C@H](O)[C@H]1O)[C@H](O)[C@H](O)CCCCCCCCCCCCCC [KRN7000]
iNKT cell activation (IL-2): stimulatory
